In the assay the target is T1, Tyrosine-protein phosphatase non-receptor type 11 (Homo sapiens, UniProt Q06124).
T1 sequence (Q06124 whole entry): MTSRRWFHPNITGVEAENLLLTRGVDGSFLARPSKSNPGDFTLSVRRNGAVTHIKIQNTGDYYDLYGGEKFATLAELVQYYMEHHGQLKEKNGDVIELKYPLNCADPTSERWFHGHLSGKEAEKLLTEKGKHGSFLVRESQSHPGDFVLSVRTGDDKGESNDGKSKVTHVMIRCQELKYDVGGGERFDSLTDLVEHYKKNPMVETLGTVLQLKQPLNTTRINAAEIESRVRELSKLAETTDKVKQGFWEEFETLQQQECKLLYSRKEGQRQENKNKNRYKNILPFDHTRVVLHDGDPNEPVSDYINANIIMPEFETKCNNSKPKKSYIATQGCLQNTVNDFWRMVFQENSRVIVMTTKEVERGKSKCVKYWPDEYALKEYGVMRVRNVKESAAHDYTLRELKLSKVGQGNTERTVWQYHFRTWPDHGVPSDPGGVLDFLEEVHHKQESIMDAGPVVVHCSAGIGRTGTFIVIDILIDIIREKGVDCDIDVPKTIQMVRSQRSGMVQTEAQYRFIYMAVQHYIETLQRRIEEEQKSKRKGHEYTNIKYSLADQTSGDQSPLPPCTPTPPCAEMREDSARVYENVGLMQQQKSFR
Kind of assay: SPH2 Allosteric Inhibition Assay and Binding.

The IC50 is the midpoint of a concentration-inhibition curve. Take `CC1(CN)CCN(c2cnc3c(N4CCCc5c4cccc5S(=O)(=O)F)n[nH]c3n2)CC1` [US12138263, Compound 5A]: the IC50 is < 1000 nM.

These data come from BindingDB's records for patent US12138263 (Relay Therapeutics, 2024).
